Data from patent US20080009418A1, “Selective Inhibitors” (Alchemia LTD., priority 2004, published 2008).

Legend:
[1] = target: T1, Human δ-opioid (DOP) (Homo sapiens, UniProt P41143); assay: Radioligand binding, human δ-opioid (DOP) membranes, FlashPlate, [3H]-Bremazocine; conditions: compound at 10 μM, [3H]-Bremazocine
T1 construct: purchased Perkin Elmer Biosignal
Summary of the method: (§1)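 Cloned human receptor membranes were coated onto FlashPlate wells and incubated with radioligand and compound (added from a 0.5 mM DMSO daughter plate) for 1 hour at room temperature in the dark. Scintillation counting gave percent inhibition, with DMSO defining total and reference ligand defining non-specific binding.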

[2] = target: T2, Human κ-Opioid (KOP) (Homo sapiens, UniProt P41145); assay: Radioligand binding, human κ-opioid (KOP) membranes, filtration, [3H]-Diprenorphine; conditions: compound at 10 μM, [3H]-Diprenorphine
T2 construct: purchased Perkin Elmer Biosignal
Summary of the method: (§2)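 Membranes from cloned human receptors were incubated with compound and radioligand for 1 hour at room temperature. Bound ligand was collected on 0.3% PEI-soaked filters, washed with cold 50 mM Tris-HCl pH 7.4, and counted by scintillation. Percent inhibition was computed against DMSO totals and reference-ligand nonspecific wells.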

[3] = target: T3, Human Melanocortin (MC3) (Homo sapiens, UniProt P41968); assay: Radioligand binding, human melanocortin MC3 membranes, FlashPlate, [125I]-NDP-αMSH; conditions: compound at 10 μM, [125I]-NDP-αMSH
T3 construct: purchased Perkin Elmer Biosignal
Summary of the method: as §1

[4] = target: T4, Human Melanocortin (MC4) (Homo sapiens, UniProt P32245); assay: Radioligand binding, human melanocortin MC4 membranes, FlashPlate, [125I]-NDP-αMSH; conditions: compound at 10 μM, [125I]-NDP-αMSH
T4 construct: purchased Perkin Elmer Biosignal
Summary of the method: as §1

[5] = target: T5, Human melanocortin (MC5) (Homo sapiens, UniProt P33032); assay: Radioligand binding, human melanocortin MC5 membranes, FlashPlate, [125I]-NDP-αMSH; conditions: compound at 10 μM, [125I]-NDP-αMSH
T5 construct: purchased Perkin Elmer Biosignal
Summary of the method: as §1

[6] = target: T6, Human melanin-concentrating hormone (MCH1) (Homo sapiens, UniProt Q99705); assay: Radioligand binding, human melanin-concentrating hormone MCH1 membranes, FlashPlate, [125I]-S36057; conditions: compound at 10 μM; for A6: inhibition of radioligand binding, human melanin-concentrating hormone (MCH1): [125I]-S36057
T6 construct: purchased Perkin Elmer Biosignal
Summary of the method: as §1

[7] = target: T7, Human μ-opioid (MOP) (Homo sapiens, UniProt P35372); assay: Radioligand binding, human μ-opioid (MOP) membranes, FlashPlate, [3H]-Naloxone; conditions: compound at 10 μM, [3H]-Naloxone
T7 construct: purchased Perkin Elmer Biosignal
Summary of the method: as §1

[8] = target: T8, Human neurokinin (NK1) (Homo sapiens, UniProt P25103); assay: Radioligand binding, human neurokinin NK1 membranes, filtration, [125I]-Substance P; conditions: compound at 10 μM, [125I]-Substance P
T8 construct: purchased Perkin Elmer Biosignal
Summary of the method: as §2

[9] = target: T9, Human neuropeptide Y (NPY-Y1) (Homo sapiens, UniProt P25929); assay: Radioligand binding, human neuropeptide Y NPY-Y1 membranes, FlashPlate, [125I]-PYY; conditions: compound at 10 μM, [125I]-PYY
T9 construct: purchased Perkin Elmer Biosignal
T9 sequence (P25929 1-384): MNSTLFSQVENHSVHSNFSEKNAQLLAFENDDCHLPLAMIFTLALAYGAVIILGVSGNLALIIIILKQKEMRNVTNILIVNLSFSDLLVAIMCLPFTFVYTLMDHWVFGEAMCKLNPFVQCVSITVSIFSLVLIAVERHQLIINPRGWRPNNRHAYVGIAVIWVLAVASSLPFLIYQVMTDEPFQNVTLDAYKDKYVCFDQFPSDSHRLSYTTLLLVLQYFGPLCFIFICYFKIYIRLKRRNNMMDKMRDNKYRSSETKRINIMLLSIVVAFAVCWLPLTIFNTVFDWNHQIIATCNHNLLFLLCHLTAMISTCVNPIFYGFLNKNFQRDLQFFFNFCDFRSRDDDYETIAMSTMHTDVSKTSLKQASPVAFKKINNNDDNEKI
Summary of the method: as §1

[10] = target: T10, Human opioid (ORL1) (Homo sapiens, UniProt P41146); assay: Radioligand binding, human opioid ORL1 membranes, FlashPlate, [125I]-Nociceptin; conditions: compound at 10 μM, [125I]-Nociceptin
T10 construct: purchased Perkin Elmer Biosignal
Summary of the method: as §1

[11] = target: T11, Mouse urotensin (mUR2) (Mus musculus, UniProt Q8VIH9); assay: Radioligand binding, mouse urotensin mUR2 membranes, FlashPlate, [125I]-Urotensin II; conditions: compound at 10 μM, [125I]-Urotensin II
T11 construct: purchased Perkin Elmer Biosignal
T11 sequence (Q8VIH9 1-385): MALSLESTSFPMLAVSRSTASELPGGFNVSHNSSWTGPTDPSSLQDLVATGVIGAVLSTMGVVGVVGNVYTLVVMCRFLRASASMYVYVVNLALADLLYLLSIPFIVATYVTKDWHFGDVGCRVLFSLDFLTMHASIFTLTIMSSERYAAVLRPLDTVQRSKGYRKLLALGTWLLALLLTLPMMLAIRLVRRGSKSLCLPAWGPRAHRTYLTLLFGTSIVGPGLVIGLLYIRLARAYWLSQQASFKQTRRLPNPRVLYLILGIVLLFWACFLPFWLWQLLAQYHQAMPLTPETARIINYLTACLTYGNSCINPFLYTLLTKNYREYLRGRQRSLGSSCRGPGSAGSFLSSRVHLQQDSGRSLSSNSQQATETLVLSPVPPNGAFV
Summary of the method: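 Cloned mouse urotensin (mUR2) receptor membranes from Perkin Elmer Biosignal were immobilized in FlashPlate microplates using a proprietary coating. Each well got 19.5 μl buffer, then 0.5 μl of DMSO, reference ligand, or compound. Adding 5 μl of [125I]-Urotensin II, diluted to 5× final concentration in binding buffer, started binding. Plates were sealed with TopSeal-A and incubated 1 hour at room temperature in the dark. Wells were counted for 30 seconds each on a TopCount after a 60-second delay, and percentage inhibition was calculated.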

T7 sequence (P35372 whole entry): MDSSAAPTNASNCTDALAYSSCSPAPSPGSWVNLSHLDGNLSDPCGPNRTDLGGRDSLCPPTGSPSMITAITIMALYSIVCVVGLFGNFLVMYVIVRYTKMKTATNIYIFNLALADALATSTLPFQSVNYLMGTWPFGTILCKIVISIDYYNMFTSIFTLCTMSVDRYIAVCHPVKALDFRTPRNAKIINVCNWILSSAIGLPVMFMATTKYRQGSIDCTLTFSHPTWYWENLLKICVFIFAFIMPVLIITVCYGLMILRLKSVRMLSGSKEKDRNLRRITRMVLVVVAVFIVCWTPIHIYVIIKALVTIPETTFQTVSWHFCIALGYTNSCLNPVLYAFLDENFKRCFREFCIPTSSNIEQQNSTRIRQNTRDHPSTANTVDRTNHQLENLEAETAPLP
T5 sequence (P33032 whole entry): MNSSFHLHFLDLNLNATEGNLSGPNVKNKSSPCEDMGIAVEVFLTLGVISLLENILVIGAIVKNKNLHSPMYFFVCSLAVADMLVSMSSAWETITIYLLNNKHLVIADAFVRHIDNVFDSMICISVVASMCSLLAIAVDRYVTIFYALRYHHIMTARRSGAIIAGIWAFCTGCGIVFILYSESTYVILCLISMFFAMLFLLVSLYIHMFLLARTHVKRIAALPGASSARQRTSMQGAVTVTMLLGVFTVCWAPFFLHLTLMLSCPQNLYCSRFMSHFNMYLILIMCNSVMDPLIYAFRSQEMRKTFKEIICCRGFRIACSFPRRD
T10 sequence (P41146 whole entry): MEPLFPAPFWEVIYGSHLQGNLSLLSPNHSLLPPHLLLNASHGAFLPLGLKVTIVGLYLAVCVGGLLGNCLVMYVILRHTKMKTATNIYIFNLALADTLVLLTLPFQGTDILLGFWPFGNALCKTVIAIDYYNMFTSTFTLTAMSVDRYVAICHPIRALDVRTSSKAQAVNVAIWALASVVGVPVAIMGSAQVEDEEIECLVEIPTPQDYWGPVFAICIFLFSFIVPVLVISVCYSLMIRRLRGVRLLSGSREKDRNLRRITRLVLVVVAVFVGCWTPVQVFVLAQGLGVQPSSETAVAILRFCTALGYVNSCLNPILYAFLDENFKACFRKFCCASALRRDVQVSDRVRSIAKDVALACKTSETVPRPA
T4 sequence (P32245 whole entry): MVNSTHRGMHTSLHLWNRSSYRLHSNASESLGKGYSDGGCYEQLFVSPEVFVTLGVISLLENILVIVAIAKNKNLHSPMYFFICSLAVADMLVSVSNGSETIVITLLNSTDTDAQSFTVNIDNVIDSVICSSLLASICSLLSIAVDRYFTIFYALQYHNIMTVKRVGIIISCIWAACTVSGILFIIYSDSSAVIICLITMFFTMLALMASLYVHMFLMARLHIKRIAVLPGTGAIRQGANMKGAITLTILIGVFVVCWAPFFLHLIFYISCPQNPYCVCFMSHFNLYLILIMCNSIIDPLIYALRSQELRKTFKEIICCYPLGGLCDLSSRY
T3 sequence (P41968 whole entry): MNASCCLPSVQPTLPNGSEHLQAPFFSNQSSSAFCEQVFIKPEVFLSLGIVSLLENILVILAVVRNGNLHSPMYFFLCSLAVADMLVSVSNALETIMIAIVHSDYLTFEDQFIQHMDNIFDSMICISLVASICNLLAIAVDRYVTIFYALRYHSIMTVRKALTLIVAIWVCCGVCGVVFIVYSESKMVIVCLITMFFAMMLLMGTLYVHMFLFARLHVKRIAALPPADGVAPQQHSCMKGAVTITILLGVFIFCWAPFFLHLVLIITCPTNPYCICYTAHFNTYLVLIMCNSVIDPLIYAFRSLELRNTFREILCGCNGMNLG
T8 sequence (P25103 whole entry): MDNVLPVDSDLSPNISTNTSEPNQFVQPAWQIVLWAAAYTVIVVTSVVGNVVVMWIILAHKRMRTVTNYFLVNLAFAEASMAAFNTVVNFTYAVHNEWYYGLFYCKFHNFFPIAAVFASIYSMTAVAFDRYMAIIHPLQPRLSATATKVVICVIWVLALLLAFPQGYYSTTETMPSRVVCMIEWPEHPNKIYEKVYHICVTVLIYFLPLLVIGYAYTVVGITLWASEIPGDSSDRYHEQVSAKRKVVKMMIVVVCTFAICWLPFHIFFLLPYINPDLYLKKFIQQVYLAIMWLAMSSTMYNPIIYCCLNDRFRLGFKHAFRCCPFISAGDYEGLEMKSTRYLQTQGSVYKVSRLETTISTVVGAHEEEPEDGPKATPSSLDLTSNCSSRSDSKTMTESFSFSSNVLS
T2 sequence (P41145 whole entry): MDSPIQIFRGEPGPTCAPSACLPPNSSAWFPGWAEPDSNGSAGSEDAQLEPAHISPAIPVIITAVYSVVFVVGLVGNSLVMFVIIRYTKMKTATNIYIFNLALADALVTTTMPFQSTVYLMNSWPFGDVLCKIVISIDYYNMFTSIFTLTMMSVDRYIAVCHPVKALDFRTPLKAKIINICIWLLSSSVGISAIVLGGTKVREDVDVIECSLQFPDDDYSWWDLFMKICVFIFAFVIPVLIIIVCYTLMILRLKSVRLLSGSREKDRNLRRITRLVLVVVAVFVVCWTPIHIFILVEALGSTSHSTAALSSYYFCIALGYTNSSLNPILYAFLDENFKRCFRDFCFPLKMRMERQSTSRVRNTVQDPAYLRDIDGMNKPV
T6 sequence (Q99705 whole entry): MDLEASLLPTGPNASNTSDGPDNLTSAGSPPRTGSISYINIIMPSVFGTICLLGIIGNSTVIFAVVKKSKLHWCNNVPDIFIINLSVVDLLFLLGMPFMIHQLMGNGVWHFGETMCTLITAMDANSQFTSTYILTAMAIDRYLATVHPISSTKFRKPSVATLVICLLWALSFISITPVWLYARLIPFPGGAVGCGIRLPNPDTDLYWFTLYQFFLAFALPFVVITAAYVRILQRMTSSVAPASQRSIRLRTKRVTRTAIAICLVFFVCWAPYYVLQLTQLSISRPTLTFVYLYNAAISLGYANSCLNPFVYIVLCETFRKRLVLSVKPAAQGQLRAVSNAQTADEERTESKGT
T1 sequence (P41143 whole entry): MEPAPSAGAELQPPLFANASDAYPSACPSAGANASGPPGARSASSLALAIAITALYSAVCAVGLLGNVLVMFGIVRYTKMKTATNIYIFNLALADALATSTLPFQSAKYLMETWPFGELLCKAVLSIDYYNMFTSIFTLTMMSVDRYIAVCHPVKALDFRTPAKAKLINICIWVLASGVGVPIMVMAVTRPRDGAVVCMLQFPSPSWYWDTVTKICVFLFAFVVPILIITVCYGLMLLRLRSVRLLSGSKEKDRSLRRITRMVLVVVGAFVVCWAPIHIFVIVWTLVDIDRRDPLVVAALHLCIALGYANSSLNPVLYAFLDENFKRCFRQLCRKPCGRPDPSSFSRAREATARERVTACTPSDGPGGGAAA

| SMILES | A1: inhibition of radioligand binding, human δ-opioid (DOP) [1] | A2: inhibition of radioligand binding, human κ-opioid (KOP) [2] | A3: inhibition of radioligand binding, human melanocortin (MC3) [3] | A4: inhibition of radioligand binding, human melanocortin (MC4) [4] | A5: inhibition of radioligand binding, human melanocortin (MC5) [5] | A6: inhibition of radioligand binding, human melanin-concentrating hormone (MCH1) [6] | A8: inhibition of radioligand binding, human neurokinin (NK1) [8] | A9: inhibition of radioligand binding, human neuropeptide Y (NPY-Y1) [9] | A11: inhibition of radioligand binding, mouse urotensin (mUR2) [11] | also measured |
| --- | --- | --- | --- | --- | --- | --- | --- | --- | --- | --- |
| CSC1O[C@H](COCc2ccc3ccccc3c2)[C@@H](O)[C@@H](OCc2ccc(-c3ccccc3)cc2)[C@H]1NC(=O)CCCNC(=N)N (stereo partly drawn) [compound 300] | − (“−” indicates less than 50% inhibition at 10 μM) | − (“−” indicates less than 50% inhibition at 10 μM) | − (“−” indicates less than 50% inhibition at 10 μM) | − (“−” indicates less than 50% inhibition at 10 μM) | + (“+” indicates greater than 50% inhibition at 10 μM) | − (“−” indicates less than 50% inhibition at 10 μM) | + (“+” indicates greater than 50% inhibition at 10 μM) | − (“−” indicates less than 50% inhibition at 10 μM) | − (“−” indicates less than 50% inhibition at 10 μM) | A7: inhibition of radioligand binding, human μ-opioid (MOP) [7]: − (“−” indicates less than 50% inhibition at 10 μM); A10: inhibition of radioligand binding, human opioid (ORL1) [10]: − (“−” indicates less than 50% inhibition at 10 μM) |
| NCCCC(=O)NC1C(OCc2ccc(Cl)cc2)OC(COCc2ccc(Cl)cc2)C(O)C1OCc1ccccc1 (single isomer, unassigned) [compound 506] | − (“−” indicates less than 50% inhibition at 10 μM) | − (“−” indicates less than 50% inhibition at 10 μM) | − (“−” indicates less than 50% inhibition at 10 μM) | − (“−” indicates less than 50% inhibition at 10 μM) | + (“+” indicates greater than 50% inhibition at 10 μM) | − (“−” indicates less than 50% inhibition at 10 μM) | + (“+” indicates greater than 50% inhibition at 10 μM) | − (“−” indicates less than 50% inhibition at 10 μM) | − (“−” indicates less than 50% inhibition at 10 μM) | A7: inhibition of radioligand binding, human μ-opioid (MOP) ([7]; 10 µM): − (“−” indicates less than 50% inhibition at 10 μM); A10: inhibition of radioligand binding, human opioid (ORL1) ([10]; 10 µM): + (“+” indicates greater than 50% inhibition at 10 μM) |
| CSC1OC(COCc2ccccc2)C(O)C(OCc2ccccc2)C1NC(=O)CCCNC(=N)N (stereo not drawn) [compound 252] |  |  |  |  |  |  |  |  |  | A1: inhibition of radioligand binding ([1]; FlashPlate): − (“−” indicates less than 50% inhibition at 10 μM); A2: inhibition of radioligand binding ([2]; filtration): − (“−” indicates less than 50% inhibition at 10 μM); A3: inhibition of radioligand binding ([3]; FlashPlate): − (“−” indicates less than 50% inhibition at 10 μM); A4: inhibition of radioligand binding ([4]; FlashPlate): − (“−” indicates less than 50% inhibition at 10 μM); A5: inhibition of radioligand binding ([5]; FlashPlate): − (“−” indicates less than 50% inhibition at 10 μM); A6: inhibition of radioligand binding ([6]; [125I]-S36057, FlashPlate): − (“−” indicates less than 50% inhibition at 10 μM); A7: inhibition of radioligand binding ([7]; FlashPlate): − (“−” indicates less than 50% inhibition at 10 μM); A8: inhibition of radioligand binding ([8]; filtration): + (“+” indicates greater than 50% inhibition at 10 μM); A9: inhibition of radioligand binding ([9]; FlashPlate): − (“−” indicates less than 50% inhibition at 10 μM); A10: inhibition of radioligand binding ([10]; FlashPlate): − (“−” indicates less than 50% inhibition at 10 μM); A11: inhibition of radioligand binding ([11]; FlashPlate): − (“−” indicates less than 50% inhibition at 10 μM) |
